Data: publication PMC7781899, “Synthesis of some quinazolinones inspired from the natural alkaloid L-norephedrine as EGFR inhibitors and radiosensitizers” (Journal of Enzyme Inhibition and Medicinal Chemistry, 2020)
Read-outs that look alike come from different tables or passages of the source.

What was measured:
MCF-7 = test: MTT cytotoxicity assay, MCF-7; type: cell-based, human; details: Homo sapiens
Protocol: (§1) The 96-well plate was incubated for 24 h before the MTT assay. […] Cells were cultured using DMEM supplemented with 10% foetal bovine serum, 10 µg/mL insulin and 1% penicillin–streptomycin. Reconstituted MTT (10%) was added and incubated for 2 h. Formazan crystals were dissolved by the MTT solubilizing solution after incubation. Absorbance was measured at a wavelength of 570 nm[28].

HCT-116 = test: MTT cytotoxicity assay, HCT-116; type: cell-based, human; details: Homo sapiens
Protocol: as §1

HepG-2 = test: MTT cytotoxicity assay, HepG-2; type: cell-based, human; details: Homo sapiens
Protocol: as §1

MDA-MB-231 = test: MTT cytotoxicity assay, MDA-MB-231; type: cell-based, human; details: Homo sapiens
Protocol: as §1

EGFR = target: T1, EGFR (Homo sapiens, UniProt P00533); test: EGFR kinase assay; type: biochemical; details: EGFR-TK inhibitory assay; means ± SE, three repeats
T1 construct: purchased Invitrogen
Protocol: An ATP solution and a kinase/peptide mixture were developed just before use. […] Then, […] of the prepared solution was added to each well. The plate was incubated for 1 h and determined by an ELISA Reader (PerkinElmer, USA). Curve fitting using Graph Pad Prism 5 was constructed. Each experiment was repeated three times. IC50 was represented as means ± SE.

[1] = MCF7, MTT assay, mean of three experiments ± SE, read-out: IC50 MCF-7
[2] = HCT-116, MTT assay, mean of three experiments ± SE, read-out: IC50 HCT-116
[3] = HepG2, MTT assay, mean of three experiments ± SE, read-out: IC50 HepG-2
[4] = MDA-MB-231, MTT assay, mean of three experiments ± SE, read-out: IC50 MDA-MB-231

T1 sequence (P00533 25-1210): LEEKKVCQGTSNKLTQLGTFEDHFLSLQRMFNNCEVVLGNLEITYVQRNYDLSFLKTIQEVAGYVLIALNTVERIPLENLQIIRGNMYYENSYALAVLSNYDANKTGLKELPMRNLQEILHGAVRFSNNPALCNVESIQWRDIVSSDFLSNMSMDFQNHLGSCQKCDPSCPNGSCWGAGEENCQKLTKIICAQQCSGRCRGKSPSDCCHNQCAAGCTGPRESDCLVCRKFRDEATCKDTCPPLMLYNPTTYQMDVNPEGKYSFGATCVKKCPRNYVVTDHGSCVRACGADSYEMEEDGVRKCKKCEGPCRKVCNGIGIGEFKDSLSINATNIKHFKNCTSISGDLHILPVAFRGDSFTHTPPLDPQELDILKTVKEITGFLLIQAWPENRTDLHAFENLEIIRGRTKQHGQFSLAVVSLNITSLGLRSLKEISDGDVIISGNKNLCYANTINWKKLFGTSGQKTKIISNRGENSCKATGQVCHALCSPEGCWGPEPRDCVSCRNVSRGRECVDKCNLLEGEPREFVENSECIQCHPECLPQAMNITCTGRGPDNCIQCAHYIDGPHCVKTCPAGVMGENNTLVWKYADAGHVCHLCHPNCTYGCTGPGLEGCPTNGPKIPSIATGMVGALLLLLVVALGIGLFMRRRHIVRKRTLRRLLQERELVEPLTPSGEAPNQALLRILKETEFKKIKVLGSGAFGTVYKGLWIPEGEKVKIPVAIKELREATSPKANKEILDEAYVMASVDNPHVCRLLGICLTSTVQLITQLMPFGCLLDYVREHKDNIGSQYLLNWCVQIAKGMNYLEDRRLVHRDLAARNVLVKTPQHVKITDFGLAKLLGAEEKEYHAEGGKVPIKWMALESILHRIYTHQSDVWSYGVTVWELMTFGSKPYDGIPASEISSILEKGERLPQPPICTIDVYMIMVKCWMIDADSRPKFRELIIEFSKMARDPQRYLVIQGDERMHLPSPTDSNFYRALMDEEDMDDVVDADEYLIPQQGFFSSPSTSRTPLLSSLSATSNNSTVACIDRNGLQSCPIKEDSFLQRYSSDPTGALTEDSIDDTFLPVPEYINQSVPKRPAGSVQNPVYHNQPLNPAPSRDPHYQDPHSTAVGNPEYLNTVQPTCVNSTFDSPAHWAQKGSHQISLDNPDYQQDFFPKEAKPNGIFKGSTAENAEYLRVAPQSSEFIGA

C#Cc1cccc(Nc2ncnc3cc(OCCOC)c(OCCOC)cc23)c1 [Erlotinib, reference compound]
IC50 (MCF-7; MCF7, read-out: IC50 MCF-7): 4.48 ± 0.02 µM
IC50 (HCT-116; HCT-116, read-out: IC50 HCT-116): 2.78 ± 0.04 µM
IC50 (HepG-2; HepG2, read-out: IC50 HepG-2): 3.04 ± 0.2 µM
IC50 (MDA-MB-231; MDA-MB-231, read-out: IC50 MDA-MB-231): 3.73 ± 0.01 µM

Nn1c(O)nc2ccccc2c1=O [Compound 12, 3-Amino-2-hydroxyquinazolin-4(3H)-one]
IC50 (MCF-7; [1]): 66.3 ± 0.72 µM
IC50 (HCT-116; [2]): 50.75 ± 0.29 µM
IC50 (HepG-2; [3]): 20.5 ± 0.31 µM
IC50 (MDA-MB-231; [4]): 57.78 ± 0.43 µM
IC50 (EGFR): 7.39 ± 0.28 µM

CSc1nc2ccccc2c(=O)n1N [Compound 7, 3-Amino-2-(methylthio)quinazolin-4(3H)-one]
IC50 (MCF-7; [1]): 68.1 ± 1.21 µM
IC50 (HCT-116; [2]): 59.2 ± 0.78 µM
melting point: 178.9 °C
IC50 (HepG-2; [3]): 48.3 ± 0.93 µM
IC50 (MDA-MB-231; [4]): 23.48 ± 0.06 µM
IC50 (EGFR): 3.44 ± 0.15 µM

O=c1c2ccccc2nc2[nH]n3c(=O)c4ccccc4nc3[nH]n12 [Compound 14, [1,2,4,5]tetrazino[3,2-b:6,5-b']diquinazoline-8,16(6H,14H)-dione]
IC50 (MCF-7; [1]): 30.12 ± 0.19 µM
IC50 (HCT-116; [2]): 29.32 ± 0.16 µM
melting point: 294.1 °C
IC50 (HepG-2; [3]): 41.25 ± 0.23 µM
IC50 (MDA-MB-231; [4]): 26.55 ± 0.04 µM
IC50 (EGFR): 1.39 ± 0.27 µM

CC1C(c2ccccc2)Oc2nc3ccccc3c(=O)n2C(C)C(c2ccccc2)Oc2nc3ccccc3c(=O)n21 (stereo not drawn) [Compound 17, 8,18-dimethyl-7,17-diphenyl-7,8,17,18-tetrahydro-[1,6,3,8]dioxadiazecino[2,3-b:7,8-b']diquinazoline-10,20-dione]
IC50 (MCF-7; [1]): 20.1 ± 0.27 µM
IC50 (HCT-116; [2]): 18.4 ± 0.2 µM
IC50 (HepG-2; [3]): 24.3 ± 0.18 µM
IC50 (MDA-MB-231; [4]): 5.45 ± 0.06 µM
IC50 (EGFR): 1.02 ± 0.05 µM

CC(C(O)c1ccccc1)n1c(=S)[nH]c2ccccc2c1=O (stereo not drawn) [Compound 4, 3-(1-hydroxy-1-phenylpropan-2-yl)-2-thioxo-2,3-dihydroquinazolin-4(1H)-one]
IC50 (MCF-7; [1]): 25.55 ± 0.02 µM
IC50 (HCT-116; [2]): 23.49 ± 0.05 µM
IC50 (HepG-2; [3]): 22.7 ± 0.61 µM
IC50 (MDA-MB-231; [4]): 35.24 ± 0.24 µM
IC50 (EGFR): 1.39 ± 0.14 µM

CC1C(c2ccccc2)Oc2nc3ccccc3c(=O)n21 (stereo not drawn) [Compound 15, 3-Methyl-2-phenyl-2H-oxazolo[2,3-b]quinazolin-5(3H)-one]
IC50 (MCF-7; [1]): 19.67 ± 0.13 µM
IC50 (HCT-116; [2]): 26.51 ± 0.17 µM
IC50 (HepG-2; [3]): 28.5 ± 0.4 µM
IC50 (MDA-MB-231; [4]): 2.41 ± 0.03 µM
IC50 (EGFR): 1.09 ± 0.12 µM
